≈ marks a conversion by molar mass, not a printed value. Like-named read-outs stand apart in the source and are kept apart here. Bridge positions count the residues as written; N and C are the ends. Square brackets hold non-standard residues; d marks the D form. Peptide text beside a SMILES is read from it. * marks the point of attachment. Lauroyl = CCCCCCCCCCCC(=O)*; X1 = CC[C@H](C)CCCCC(=O)*; Nle = CCCC[C@H](N)C(=O)O; Dab = NCC[C@H](N)C(=O)O
Assays:
P. aeruginosa ATTC 9027 = type: cell-based, Pseudomonas aeruginosa
Procedure: (§1) MICs were measured after 18–20 h of incubation in sterile 96-well plates (Corning Costar 3598 microtiter plates) in Mueller Hinton Broth (MHB) culture medium, (Difco, USA), according to well known in vitro protocols. Bacterial strains in Table 1 were: P. aeruginosa ATTC 9027, E. coli ATTC 8739, S. aureus ATTC 6538, and E. faecalis ATTC 29212. MICs shown in table 4 were performed by Mary Conrad at Cubist Pharmaceuticals (Lexington, MA) in non-binding surface plates.

E. coli ATTC 8739 = type: cell-based, Escherichia coli
Procedure: as §1

E. faecalis ATTC 29212 = experiment: microbe, parasite or virus in culture; type: cell-based, Enterococcus faecalis
Procedure: Lipopeptide 39 was chosen for this, as it is known that long fatty acids tend to favor activity against Gram-positive bacteria in polymyxin analogs. […] In summary, new broad-spectrum antimicrobial lipopeptides were achieved.
as §1

S. aureus = experiment: microbe, parasite or virus in culture; type: cell-based, Staphylococcus aureus; conditions: for MIC: Staphylococcus aureus
Procedure: as §1

P. aeruginosa = test system: P. aeruginosa
Procedure: (§2) Strains of E. coli and P. aeruginosa with resistance to quinolones and carbapenems as well as multi-drug-resistant bacteria were tested.
as §1

E. coli = conditions: for MIC E. coli NDM-1: highly-resistant, New Delhi metallo-beta-lactamase gene; for MIC E. coli VAL 5 / MIC E. coli MAC 21a / MIC E. coli VAL 10: resistant to nalidixic acid; for MIC E. coli MAC 21a / MIC E. coli VAL 10: cotrimoxazole and ampicillin
Procedure: as §2, §1

E. coli (ATCC 25922) [1] = experiment: Transmission electron microscopy of treated E. coli; type: cell-based, Escherichia coli; conditions: 120 min at 0.5 μg/mL
Procedure: An overnight culture (12 to 16 h) of S. aureus (ATCC 29213) or E. coli (ATCC 25922) in Tryptic Soy Broth (TSB) was grown at 37 °C and 500 μL were added in 50 mL of tryptone water (∼10^8 bacteria/mL). […] Cells were collected by centrifugation (10000 rpm, 20 min).
Samples were fixed with 2.5% glutaraldehyde in phosphate buffer for 2 h at 4 °C, then washed with the same buffer and post fixed with 1% osmium tetroxide in buffer containing 0.8% potassium ferricyanide at 4 °C. The samples were then dehydrated for 1 hour in acetone and infiltrated in a gradded series of Epon resin (Ted Pella Inc., USA) during 2 days, and finally embedded in fresh Epon resin and polymerised at 60 °C during 48 hours.
Ultrathin sections were obtained using a Leica Ultracut UCT ultramicrotome (Leica, Vienna) and mounted on Formvar-coated copper grids. Sections were stained with 2% aqueous uranyl acetate and lead citrate and examined in a JEM-1010 electron microscope (Jeol, Japan).

CD-1 mice = conditions: reported value, no reference given; cited from earlier work
E. coli (ATCC 25922) [2] = experiment: Flow cytometry (PI membrane permeability, BOX membrane potential), E. coli; type: cell-based, Escherichia coli; conditions: 0.5 μg/mL
Procedure: The mechanism of action at the membrane level of our best candidate was studied using flow cytometry. To assess membrane permeability, a propidium iodide (PI) probe was used[43][44]. The fluorescence conferred by this probe is generally associated with cells that have lost their membrane integrity. The effect on membrane potential was evaluated with bis-(1,3-dibutylbarbituric acid) trimethine oxonol (BOX). Membrane depolarization leads to the incorporation of this anionic dye into the cell where it binds to lipid-rich intracellular compounds, resulting in an increase in fluorescence.
(§3) An overnight culture (12 to 16 h) of S. aureus (ATCC 29213) or E. coli (ATCC 25922) in Tryptic Soy Broth (TSB) was grown at 37 °C and 400 μL were added in 50 mL of tryptone water (∼10^7 bacteria/mL). The bacterial suspension was split into aliquots of 4-5 mL and treated with the peptides (at the MIC) for different incubation times at room temperature. Cells were collected by centrifugation (10000 rpm, 20 min) and resuspended in 1 mL of filtered Ringer’s solution.
A stock solution of propidium iodide (PI, 1 mg/mL, Molecular Probes) and bis-(1,3-dibutylbarbituric acid) trimethine oxonol (BOX, 250 μM, Sigma Aldrich) was prepared in distilled water. Portions (10 μL and 2 μL, respectively) were added to aliquots of cells (100 μL of each sample in 1 mL of Ringer’s solution) to give a final concentration of 10 μg/mL of PI and 0.5 μM for BOX.
Flow cytometric measurements were performed on a Gallios multi-colour flow cytometer instrument (Beckman Coulter, Inc, Fullerton, CA) set up with the 3-lasers 10 colors standard configuration. Excitation was done using a blue (488 nm) laser. Forward scatter (FS), side scatter (SS), green fluorescence (525/40 nm) from BOX and red fluorescence (620/30 nm) emitted by PI were collected using logarithmic scales. FS was used as the discriminating parameter. The single-cell bacterial population was selected on a forward-side scatter plot. Fluorescence was presented in a dot plot of BOX vs. PI. Three regions were defined on this graph according to the controls: depolarized, permeabilized and non-affected cells. Control cells (non-stained and single stained populations) were used to define these regions. 25,000 cells defined according to their scatter parameters were counted in each sample.

E. coli (ATCC 25922) [3] = experiment: Reduction of viability by plate count, E. coli; type: cell-based, Escherichia coli; conditions: 0.5 μg/mL
Procedure: as §3

[4] = target: alternative NADH dehydrogenase; design: method as in PMID 19564154, PMID 24169795; conditions: Mycobacterium smegmatis; cited from earlier work
S. aureus ATTC 6538 = experiment: microbe, parasite or virus in culture; type: cell-based, Staphylococcus aureus
Procedure: as §1

[5] = target: malate:quinone oxidoreductase; design: method as in PMID 19564154; conditions: Mycobacterium smegmatis; cited from earlier work
[6] = design: method as in PMID 22908162, PMID 24733472; conditions: after iv administration, after 6 h; cited from earlier work
[7] = no reference given, cited from earlier work

## CCCCCCCCCCCC(=O)N[C@@H](CCN)C(=O)N[C@H](C(=O)N[C@@H](CCN)C(=O)N[C@H]1CSSC[C@H](C(N)=O)NC(=O)[C@H](CCN)NC(=O)[C@H](CCN)NC(=O)[C@H](CCCC)NC(=O)[C@@H](Cc2ccccc2)NC(=O)[C@H](CCN)NC1=O)[C@@H](C)O [Analog 39, dodecanoyl-Dab-Thr-Dab-Cys-Dab-Phe-Nle-Dab-Dab-Cys] (Lauroyl-[Dab]T[Dab]C[Dab][dF][Nle][Dab][Dab][dC]-NH2; disulfide 4-10)
P. aeruginosa ATTC 9027; ATTC 9027
  MIC P. aeruginosa: 1 µg/mL (≈ 0.79 µM)
E. coli ATTC 8739; ATTC 8739
  MIC E. coli: 4 µg/mL (≈ 3.16 µM)
E. faecalis ATTC 29212; ATTC 29212
  MIC E. faecalis Wild type ATTC 29212: 2 to 4 µg/mL
S. aureus
  MIC S. aureus DR, MR SAU.1616: 8 µg/mL (≈ 6.32 µM)
  MIC S. aureus DR, MS SAU.278: 2 µg/mL (≈ 1.58 µM)
  MIC S. aureus MR ATTC 43300: 1 µg/mL (≈ 0.79 µM)
  MIC S. aureus MR SAU.1118: 1 µg/mL (≈ 0.79 µM)
  MIC S. aureus MS ATTC 29213: 1 µg/mL (≈ 0.79 µM)
P. aeruginosa
  MIC P. aeruginosa 38a: 1 µg/mL (≈ 0.79 µM)
  MIC P. aeruginosa 40b: 2 µg/mL (≈ 1.58 µM)
E. coli
  MIC E. coli NDM-1: 0.5 µg/mL (≈ 0.395 µM)
  MIC E. coli VAL 5: 0.5 µg/mL (≈ 0.395 µM)
  MIC E. coli MAC 21a: 1 µg/mL (≈ 0.79 µM)
  MIC E. coli VAL 10: 0.5 µg/mL (≈ 0.395 µM)

## CC[C@H](C)CCCCC(=O)N[C@@H](CCN)C(=O)N[C@H](C(=O)N[C@@H](CCN)C(=O)N[C@H]1CCNC(=O)[C@H]([C@@H](C)O)NC(=O)[C@H](CCN)NC(=O)[C@H](CCN)NC(=O)[C@H](CC(C)C)NC(=O)[C@@H](Cc2ccccc2)NC(=O)[C@H](CCN)NC1=O)[C@@H](C)O [Polymyxin B] (X1-[Dab]T[Dab][Dab][Dab][dF]L[Dab][Dab]T; lactam 4-C; N-terminus assumed)
P. aeruginosa ATTC 9027; P. aeruginosa ATTC 9027, Mueller Hinton Broth, 18–20 h
  MIC P. aeruginosa: 2 µg/mL (≈ 1.66 µM)
E. coli ATTC 8739; E. coli ATTC 8739, Mueller Hinton Broth, 18–20 h
  MIC E. coli: 1 µg/mL (≈ 0.831 µM)
E. coli (ATCC 25922) [1]
  Effect on cell morphology (TEM): numerous protrusions were observed at the outer cell membrane and even some completely lysed membranes
CD-1 mice
  LD50 reported for subcutaneous administration: 59.5 mg/kg
E. coli (ATCC 25922) [2]; 5 min
  % of stained cells PI: 11%
E. coli (ATCC 25922) [2]; 10 min
  % of stained cells BOX: 35%
  % of stained cells PI: 20%
E. coli (ATCC 25922) [2]; 15 min
  % of stained cells BOX: 17%
  % of stained cells PI: 60%
E. coli (ATCC 25922) [2]; 30 min
  % of stained cells BOX: 13%
  % of stained cells PI: 68%
E. coli (ATCC 25922) [2]; 60 min
  % of stained cells BOX: 23%
  % of stained cells PI: 57%
E. coli (ATCC 25922) [2]; 120 min
  % of stained cells BOX: 17%
E. coli (ATCC 25922) [3]; 5 min
  % viability reduction: 0%
E. coli (ATCC 25922) [3]; 10 min
  % viability reduction: 20%
E. coli (ATCC 25922) [3]; 15 min
  % viability reduction: 34%
E. coli (ATCC 25922) [3]; 30 min
  % viability reduction: 65%
E. coli (ATCC 25922) [3]; 60 min
  % viability reduction: 87%
E. coli (ATCC 25922) [3]; 120 min
  % viability reduction: 98%
[4]
  IC50 alternative NADH dehydrogenase: 1.6 µg/mL (≈ 1.33 µM)
S. aureus ATTC 6538; S. aureus ATTC 6538, Mueller Hinton Broth, 18–20 h
  MIC S. aureus: >32 µg/mL
P. aeruginosa; resistant to ceftazidime, ciprofloxacin, imipenem, piperacillin-tazobactam
  MIC P. aeruginosa 38a: 1 µg/mL
P. aeruginosa; resistant to imipenem
  MIC P. aeruginosa 40b: 2 µg/mL (≈ 1.66 µM)
E. coli
  MIC E. coli NDM-1: 0.5 µg/mL (≈ 0.415 µM)
  MIC E. coli VAL 5: 0.25 µg/mL (≈ 0.208 µM)
  MIC E. coli MAC 21a: 0.25 µg/mL (≈ 0.208 µM)
  MIC E. coli VAL 10: 0.25 µg/mL (≈ 0.208 µM)
[5]
  IC50 malate:quinone oxidoreductase: 4.3 µg/mL (≈ 3.57 µM)
[6]
  kidney concentration relative to serum concentration: more than 30 times

## CN[C@H](CC(C)C)C(=O)N[C@H]1C(=O)N[C@@H](CC(N)=O)C(=O)N[C@H]2C(=O)N[C@H]3C(=O)N[C@H](C(=O)N[C@H](C(=O)O)c4cc(O)cc(O)c4-c4cc3ccc4O)[C@H](O)c3ccc(c(Cl)c3)Oc3cc2cc(c3O[C@@H]2O[C@H](CO)[C@@H](O)[C@H](O)[C@H]2O[C@H]2C[C@](C)(N)[C@H](O)[C@H](C)O2)Oc2ccc(cc2Cl)[C@H]1O [Vancomycin]
E. faecalis ATTC 29212; Enterococcus faecalis, ATTC29212, read-out: MIC E. faecalis Wild type ATTC 29212
  MIC: 2 µg/mL (≈ 1.38 µM)
S. aureus; read-out: MIC S. aureus DR, MR SAU.1616
  MIC: 2 µg/mL (≈ 1.38 µM)
S. aureus; read-out: MIC S. aureus DR, MS SAU.278
  MIC: 2 µg/mL (≈ 1.38 µM)
S. aureus; read-out: MIC S. aureus MR ATTC 43300
  MIC: 2 µg/mL (≈ 1.38 µM)
S. aureus; read-out: MIC S. aureus MR SAU.1118
  MIC: 0.5 µg/mL (≈ 0.345 µM)
S. aureus; read-out: MIC S. aureus MS ATTC 29213
  MIC: 0.5 to 1 µg/mL (≈ 0.345 to 0.69 µM)
S. aureus ATTC 6538; Staphylococcus aureus, ATTC6538, read-out: MIC S. aureus
  MIC: 1 µg/mL (≈ 0.69 µM)

## Somatostatin
[7]; administered in vivo
  half-life: 2 to 3 min

## lanreotide [reference compound]
[7]; metabolic degradation
  half-lives: 2 to 3 h
